Values quoted from earlier work as cited in patent publication US20030199496A1, “Pharmaceutical compositions containing alpha3beta4 nicotinic receptor antagonists and methods of their use” (priority 2002, published 2003).

System: Purkinje nerve cells

In the case of `COCC[C@H]1CC2CN3CCc4c([nH]c5ccccc45)[C@](C(=O)OC)(C2)[C@H]13` [18-MC, 18-methoxycoronaridine], the “neurotoxicity, especially on Purkinje nerve cells” value (at certain doses) is listed as “devoid of these undesirable characteristics” and the tremors (human and animal subjects) is listed as “devoid of these undesirable characteristics”.
